Assays:
HT-29 = test: Compound tested for cytotoxic Activity against HT-29 cell line from colon carcinoma; format: functional, cell-based; details: Homo sapiens
HL-60 = test: Compound tested for cytotoxic Activity against HL-60 cell line from promyelocytic leukemia; format: functional, cell-based; details: Homo sapiens
NHDF [1] = test: (§1) Compound tested for cytotoxic Activity against NHDF cell line; format: functional, cell-based; details: Homo sapiens
MOLT-4 = test: Compound tested for cytotoxic Activity against Molt-4 cell line from T cell leukemia; format: functional, cell-based; details: Homo sapiens
MCF7 = test: Compound tested for cytotoxic Activity against MCF-7 cell line from breast carcinoma; format: functional, cell-based; details: Homo sapiens
UCLA P-3 = test: Compound tested for cytotoxic Activity against UCLA-P3 cell line from lung carcinoma; format: functional, cell-based; details: Homo sapiens
SK-MEL-28 = test: Compound tested for cytotoxic Activity against SK-Mel-28 cell line from melanoma; format: functional, cell-based; details: Homo sapiens
H322 [2] = test: Compound tested for cytotoxic Activity against H-322 cell line from lung carcinoma; format: functional, cell-based; details: Homo sapiens, NCI-H322
P388 = test: Compound tested for cytotoxic Activity against P-388 cell line from mouse leukemia; format: functional, cell-based
CAPAN-1 = test: Compound tested for cytotoxic Activity against Capan-l cell line from pancreatic carcinoma; format: functional, cell-based; details: Homo sapiens
OVCAR-3 = test: Compound tested for cytotoxic Activity against Ovcar-3 cell line from ovarian carcinoma; format: functional, cell-based; details: Homo sapiens
CHO [3] = test: (§2) Compound tested for cytotoxic Activity against CHO cell line; format: functional, cell-based; details: Cricetulus griseus
H322 [4] = test: Compound tested for cytotoxic Activity against H-322 cell line from lung carcinoma; Non toxic; format: functional, cell-based, Homo sapiens
CHO [5] = test: as §2; format: cell-based; details: Cricetulus griseus
NHDF [6] = test: as §1; format: cell-based; details: Homo sapiens
CHO [7] = test: Compound tested for cytotoxic Activity against CHO cell line; Not toxic; format: functional, cell-based, Cricetulus griseus
NHDF [8] = test: Compound tested for cytotoxic Activity against NHDF cell line; Not toxic; format: functional, cell-based, Homo sapiens

C[C@@H](COC(=O)N1c2ccccc2[C@@]23O[C@]24CCC[C@@H]3C#C/C=C\C#C[C@H]14)S(=O)(=O)c1ccccc1
IC50 (HT-29): 0.78 µM
IC50 (HL-60): 780 nM
IC50 (NHDF [1]): 1 mM
IC50 (MOLT-4): 0.01 µM
IC50 (MCF7): 25 µM
IC50 (UCLA P-3): 3.1 µM
IC50 (SK-MEL-28): 50 µM
IC50 (H322 [2]): 13 µM
IC50 (P388): 1600 nM
IC50 (CAPAN-1): 3.1 µM
IC50 (OVCAR-3): 3.1 µM
IC50 (CHO [3]): 1 mM

C[C@H](COC(=O)N1c2ccccc2[C@@]23O[C@]24CCC[C@@H]3C#C/C=C\C#C[C@H]14)S(=O)(=O)c1ccccc1
IC50 (HT-29): 13 µM
IC50 (HL-60): 1600 nM
IC50 (NHDF [1]): > 1 mM
IC50 (MOLT-4): 10 µM
IC50 (MCF7): > 1000 µM
IC50 (UCLA P-3): 13 µM
IC50 (SK-MEL-28): > 1000 µM
IC50 (P388): 1600 nM
IC50 (CAPAN-1): 6.3 µM
IC50 (OVCAR-3): 13 µM
IC50 (CHO [3]): > 1 mM
IC50 (H322 [4]): Non-toxic

O=C(OCCS(=O)(=O)c1ccccc1)N1c2ccccc2[C@@]23O[C@]24CCC[C@@H]3C#C/C=C\C#C[C@H]14
IC50 (HT-29): 0.39 µM
IC50 (HL-60): 98 nM
IC50 (MOLT-4): 1e-05 µM
IC50 (MCF7): 3.1 µM
IC50 (UCLA P-3): 0.78 µM
IC50 (SK-MEL-28): 63 µM
IC50 (CHO [5]): 6.3 µM
IC50 (H322 [2]): 3.1 µM
IC50 (P388): 98 nM
IC50 (CAPAN-1): 0.078 µM
IC50 (NHDF [6]): 6.3 µM
IC50 (OVCAR-3): 0.78 µM

CC(C)(COC(=O)N1c2ccccc2[C@@]23O[C@]24CCC[C@@H]3C#C/C=C\C#C[C@H]14)S(=O)(=O)c1ccccc1
IC50 (HT-29): 25 µM
IC50 (HL-60): 25000 nM
IC50 (CHO [7]): Non-toxic
IC50 (MOLT-4): 1000 µM
IC50 (MCF7): 25 µM
IC50 (UCLA P-3): 50 µM
IC50 (SK-MEL-28): < 1000 µM
IC50 (H322 [2]): 50 µM
IC50 (P388): 13000 nM
IC50 (CAPAN-1): 50 µM
IC50 (OVCAR-3): 50 µM
IC50 (NHDF [8]): Non-toxic
